According to publication PMC5487684, “Safety, Pharmacokinetics, and Antiviral Activity of a Novel HIV Antiviral, ABX464, in Treatment-Naive HIV-Infected Subjects in a Phase 2 Randomized, Controlled Study” (Antimicrobial Agents and Chemotherapy, 2017):
Entries after “also recorded” stand apart in the source; their conditions may differ. Read-outs that look alike come from different tables or passages of the source.

Assays:
[1] = Plasma pharmacokinetics of ABX464 and ABX464-NGlc in HIV-infected subjects; assay type: in vivo, human; details: for AUC(0-inf) / Cmax / half-life / Tmax: human, plasma, po
Method: Plasma samples were analyzed for ABX464 and ABX464-NGlc using validated bioanalytical methods by Atlanbio (Saint Nazaire, France) according to good laboratory practices. Pharmacokinetic parameters were calculated by noncompartmental analysis (NCA), using Phoenix WinNonlin software (Pharsight Corporation) running on a personal computer. On day 1, the following PK parameters were generated: Cmax, the time to Cmax (Tmax), lag time (tlag), elimination rate constant (kel), area under the concentration-time curve (AUC) from time zero to time t (AUC0–t), AUC from time zero to infinity (AUC0–∞), apparent clearance (CL/F), and apparent volume of distribution (V/F). On the other days of PK assessment, only Cmax, Tmax, tlag, kel, and AUC0–t were generated. The secondary analysis concerned pharmacodynamic (PD) activity, as expressed by CD4 and CD8 levels and viral load across time. The HIV viral load was analyzed in the prequalified individual local study center laboratories. CD4 and CD8 cell counts were also determined in the local study center laboratories. With respect to the viral load, changes in the log-transformed viral load values between 24 h postdose and predose were calculated on each day, and a comparison between each dose level and pooled placebo data was made. Moreover, the rate of success (defined as a decrease in the viral load value of at least 0.5 log) was evaluated for each treatment (including placebo) and compared between treatments.

HIV = system: HIV; set-up: method as in PMID 25889234; details: human PBMCs, treatment for at least 24 weeks; cited from earlier work
healthy subjects = details: cited from earlier work

**Q.** Which “Concomitant food effect on relative bioavailability” value ([1]; fed vs fasted) does the source give for `FC(F)(F)Oc1ccc(Nc2ccc3cccc(Cl)c3n2)cc1` [ABX464] here?
**A.** substantial increase in the relative bioavailability

**Q.** What about the AUC(0-inf) ([1]; 50 mg, HIV-infected, single oral 50mg (fasted), N 7, read-out: AUC0-∞, GM) of the same molecule?
**A.** 42.8 ng·h/mL

**Q.** And the AUC(0-inf) ([1]; 50 mg, HIV-infected, single oral 50mg (fasted), N 7, read-out: AUC0-∞, Mean)?
**A.** 55.4 ng·h/mL

**Q.** And the Cmax ([1]; 50 mg, HIV-infected, single oral 50mg (fasted), N 7, read-out: Cmax, GM)?
**A.** 14.9 ng/mL

**Q.** What about the Cmax ([1]; 50 mg, HIV-infected, single oral 50mg (fasted), N 7, read-out: Cmax, Mean) of the same molecule?
**A.** 19.4 ng/mL

**Q.** What about the half-life ([1]; 50 mg, HIV-infected, single oral 50mg (fasted), N 7, read-out: t1/2, GM (converted)) of the same molecule?
**A.** 0.94 h

**Q.** What about the half-life ([1]; 50 mg, HIV-infected, single oral 50mg (fasted), N 7, read-out: t1/2, Mean (converted)) of the same molecule?
**A.** 0.96 h

**Q.** What about the Tmax ([1]; 50 mg, HIV-infected, single oral 50mg (fasted), N 7, read-out: tmax, GM) of the same molecule?
**A.** 1.8 h

**Q.** And the Tmax ([1]; 50 mg, HIV-infected, single oral 50mg (fasted), N 7, read-out: tmax, Mean)?
**A.** 1.9 h

**Q.** What about the half-life ([1]; HIV-infected subjects, oral, read-out: half-life (t1/2) (converted)) of the same molecule?
**A.** ~1 h

**Q.** What about the “Development of drug resistance in vitro” value (HIV) of the same molecule?
**A.** no development of resistance-inducing mutations; also recorded: did not induce any drug resistance

**Q.** And the “Tolerability in healthy volunteers, food effect and repeated dosing study” value (healthy subjects)?
**A.** good tolerability profile

**Q.** What about the “Tolerability in healthy subjects, first-in-human study” value (healthy subjects; single ascending oral dose, up to 150 mg) of the same molecule?
**A.** very well tolerated; also recorded: well tolerated
